Experimental data reported in PubChem BioAssay (NCI).
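Tested at 5 concentrations; 48 h exposure; 96-well plates; endpoints linearly interpolated, else capped at highest concentration. At the TGI there is no net growth.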

Assays:
Assay in all cases: NCI-60 cell line screen, 48 h
[1] = test system: BT-549 breast
[2] = test system: SK-OV-3 ovarian
[3] = test system: RXF 393 renal
[4] = test system: UO-31 renal
[5] = test system: NCI-H460 lung
[6] = test system: CCRF-CEM leukemia
[7] = test system: CAKI-1 renal
[8] = test system: OVCAR-4 ovarian
[9] = test system: SNB-19 CNS
[10] = test system: MDA-MB-435
[11] = test system: HOP-92 NSCLC
[12] = test system: NCI-H226 lung
[13] = test system: HT29 colon
[14] = test system: SK-MEL-28 melanoma
[15] = test system: MDA-MB-231 breast
[16] = test system: RPMI-8226 leukemia
[17] = test system: U251 CNS
[18] = test system: PC-3 prostate
[19] = test system: HL-60(TB) leukemia
[20] = test system: SN12C renal
[21] = test system: SNB-75 CNS
[22] = test system: K-562 leukemia
[23] = test system: MDA-N
[24] = test system: HOP-62 NSCLC
[25] = test system: SK-MEL-2 melanoma
[26] = test system: SR leukemia
[27] = test system: HS 578T breast
[28] = test system: SW-620 colon
[29] = test system: LOX IMVI melanoma
[30] = test system: IGROV1 ovarian
[31] = test system: HCC-2998 colon
[32] = test system: SF-539 CNS
[33] = test system: SK-MEL-5 melanoma
[34] = test system: NCI/ADR-RES ovarian
[35] = test system: HCT-15 colon
[36] = test system: OVCAR-3 ovarian
[37] = test system: UACC-257 melanoma
[38] = test system: A549 NSCLC
[39] = test system: OVCAR-5 ovarian
[40] = test system: M14 melanoma
[41] = test system: MALME-3M melanoma
[42] = test system: KM12 colon
[43] = test system: EKVX NSCLC
[44] = test system: T-47D breast
[45] = test system: 786-0 renal
[46] = test system: TK-10 renal
[47] = test system: MOLT-4 leukemia
[48] = test system: MCF7 breast
[49] = test system: DU-145 prostate
[50] = test system: SF-268 CNS
[51] = test system: HCT-116 colon
[52] = test system: COLO 205 colon
[53] = test system: ACHN renal
[54] = test system: OVCAR-8 ovarian
[55] = test system: NCI-H23 lung
[56] = test system: UACC-62 melanoma
[57] = test system: SF-295 CNS
[58] = test system: A498 renal
[59] = test system: NCI-H522 lung

CCOP(=O)(OCC)/C(C#N)=C(\C)c1ccco1
TGI [1]: > 10 µM
TGI [2]: > 10 µM
TGI [3]: > 10 µM
TGI [4]: > 10 µM
TGI [5]: > 10 µM
TGI [6]: > 10 µM
TGI [7]: > 10 µM
TGI [8]: > 10 µM
TGI [9]: > 10 µM
TGI [10]: > 10 µM
TGI [11]: > 10 µM
TGI [12]: > 10 µM
TGI [13]: > 10 µM
TGI [14]: > 10 µM
TGI [15]: > 10 µM
TGI [16]: > 10 µM
TGI [17]: > 10 µM
TGI [18]: > 10 µM
TGI [19]: > 10 µM
TGI [20]: > 10 µM
TGI [21]: > 10 µM
TGI [22]: > 10 µM
TGI [23]: > 10 µM
TGI [24]: > 10 µM
TGI [25]: > 10 µM
TGI [26]: > 10 µM
TGI [27]: > 10 µM
TGI [28]: > 10 µM
TGI [29]: > 10 µM
TGI [30]: > 10 µM
TGI [31]: > 10 µM
TGI [32]: > 10 µM
TGI [33]: > 10 µM
TGI [34]: > 10 µM
TGI [35]: > 10 µM
TGI [36]: > 10 µM
TGI [37]: > 10 µM
TGI [38]: > 10 µM
TGI [39]: > 10 µM
TGI [40]: > 10 µM
TGI [41]: > 10 µM
TGI [42]: > 10 µM
TGI [43]: > 10 µM
TGI [44]: > 10 µM
TGI [45]: > 10 µM
TGI [46]: > 10 µM
TGI [47]: > 10 µM
TGI [48]: > 10 µM
TGI [49]: > 10 µM
TGI [50]: > 10 µM
TGI [51]: > 10 µM
TGI [52]: > 10 µM
TGI [53]: > 10 µM
TGI [54]: > 10 µM
TGI [55]: > 10 µM
TGI [56]: > 10 µM
TGI [57]: > 10 µM
TGI [58]: > 10 µM

O=P1(C(O)c2ccccc2)N(Cc2ccccc2)[C@@H]2CCCC[C@H]2N1Cc1ccccc1 (stereo partly drawn)
TGI [1]: > 100 µM
TGI [2]: > 100 µM
TGI [3]: > 100 µM
TGI [4]: > 100 µM
TGI [5]: > 100 µM
TGI [6]: > 100 µM
TGI [7]: > 100 µM
TGI [8]: 53.1 µM
TGI [9]: > 100 µM
TGI [10]: 71 µM
TGI [12]: 64.7 µM
TGI [13]: 46.3 µM
TGI [14]: > 100 µM
TGI [15]: 53.8 µM
TGI [17]: > 100 µM
TGI [18]: 89.1 µM
TGI [19]: 47.2 µM
TGI [20]: 43 µM
TGI [21]: 55.1 µM
TGI [22]: > 100 µM
TGI [23]: > 100 µM
TGI [24]: > 100 µM
TGI [25]: 73.7 µM
TGI [26]: 49.9 µM
TGI [27]: 45.5 µM
TGI [28]: > 100 µM
TGI [29]: 32.1 µM
TGI [30]: 49.9 µM
TGI [31]: 50.4 µM
TGI [32]: 45.6 µM
TGI [33]: > 100 µM
TGI [34]: > 100 µM
TGI [35]: > 100 µM
TGI [36]: 91.3 µM
TGI [37]: 56 µM
TGI [38]: > 100 µM
TGI [39]: 76.8 µM
TGI [40]: 58.5 µM
TGI [41]: 73.1 µM
TGI [42]: > 100 µM
TGI [43]: > 100 µM
TGI [44]: 85.6 µM
TGI [45]: 47.9 µM
TGI [46]: > 100 µM
TGI [47]: 49.1 µM
TGI [48]: > 100 µM
TGI [49]: > 100 µM
TGI [50]: 97.1 µM
TGI [51]: > 100 µM
TGI [52]: 29.1 µM
TGI [53]: > 100 µM
TGI [54]: > 100 µM
TGI [55]: > 100 µM
TGI [59]: 63.6 µM
TGI [56]: > 100 µM
TGI [57]: 56.6 µM

Cc1ccc(S(=O)(=O)NCc2cccc([N+](=O)[O-])c2)cc1
TGI [1]: > 100 µM
TGI [2]: > 100 µM
TGI [3]: > 100 µM
TGI [5]: > 100 µM
TGI [6]: > 100 µM
TGI [7]: > 100 µM
TGI [8]: > 100 µM
TGI [9]: > 100 µM
TGI [10]: > 100 µM
TGI [11]: > 100 µM
TGI [12]: > 100 µM
TGI [13]: > 100 µM
TGI [14]: > 100 µM
TGI [15]: > 100 µM
TGI [16]: > 100 µM
TGI [17]: > 100 µM
TGI [18]: > 100 µM
TGI [19]: 90.3 µM
TGI [20]: > 100 µM
TGI [21]: > 100 µM
TGI [23]: > 100 µM
TGI [24]: > 100 µM
TGI [25]: > 100 µM
TGI [26]: > 100 µM
TGI [27]: > 100 µM
TGI [28]: > 100 µM
TGI [29]: > 100 µM
TGI [30]: > 100 µM
TGI [32]: > 100 µM
TGI [33]: > 100 µM
TGI [34]: > 100 µM
TGI [35]: > 100 µM
TGI [36]: > 100 µM
TGI [37]: > 100 µM
TGI [38]: > 100 µM
TGI [39]: > 100 µM
TGI [40]: > 100 µM
TGI [41]: > 100 µM
TGI [42]: > 100 µM
TGI [43]: > 100 µM
TGI [44]: > 100 µM
TGI [45]: > 100 µM
TGI [46]: > 100 µM
TGI [47]: > 100 µM
TGI [48]: > 100 µM
TGI [49]: > 100 µM
TGI [50]: > 100 µM
TGI [51]: > 100 µM
TGI [52]: > 100 µM
TGI [53]: > 100 µM
TGI [54]: > 100 µM
TGI [55]: > 100 µM
TGI [59]: > 100 µM
TGI [56]: > 100 µM
TGI [57]: > 100 µM
TGI [58]: > 100 µM

CC(=O)CC(=O)N1CCOC1=O
TGI [1]: > 10 µM
TGI [2]: > 10 µM
TGI [3]: > 10 µM
TGI [4]: > 10 µM
TGI [5]: > 10 µM
TGI [6]: > 10 µM
TGI [7]: > 10 µM
TGI [8]: > 10 µM
TGI [9]: > 10 µM
TGI [10]: > 10 µM
TGI [11]: > 10 µM
TGI [12]: > 10 µM
TGI [13]: > 10 µM
TGI [14]: > 10 µM
TGI [15]: > 10 µM
TGI [16]: > 10 µM
TGI [17]: > 10 µM
TGI [18]: > 10 µM
TGI [19]: > 10 µM
TGI [20]: > 10 µM
TGI [21]: > 10 µM
TGI [22]: > 10 µM
TGI [23]: > 10 µM
TGI [24]: > 10 µM
TGI [25]: > 10 µM
TGI [26]: > 10 µM
TGI [27]: > 10 µM
TGI [28]: > 10 µM
TGI [29]: > 10 µM
TGI [30]: > 10 µM
TGI [31]: > 10 µM
TGI [32]: > 10 µM
TGI [33]: > 10 µM
TGI [34]: > 10 µM
TGI [35]: > 10 µM
TGI [36]: > 10 µM
TGI [37]: > 10 µM
TGI [38]: > 10 µM
TGI [39]: > 10 µM
TGI [40]: > 10 µM
TGI [41]: > 10 µM
TGI [42]: > 10 µM
TGI [43]: > 10 µM
TGI [44]: > 10 µM
TGI [45]: > 10 µM
TGI [46]: > 10 µM
TGI [47]: > 10 µM
TGI [48]: > 10 µM
TGI [49]: > 10 µM
TGI [50]: > 10 µM
TGI [51]: > 10 µM
TGI [52]: > 10 µM
TGI [53]: > 10 µM
TGI [54]: > 10 µM
TGI [55]: > 10 µM
TGI [56]: > 10 µM
TGI [57]: > 10 µM
TGI [58]: > 10 µM
